Test system: MV-4-11 cells
Experiment: Gene expression microarray analysis (Affymetrix PrimeView) and GSEA
Format: cell-based, human
Parameters: RFU PODN (11730768_x_at) / Fold change /veh PODN (11730768_x_at) / RFU LINC00158 (11744669_a_at) / Fold change /veh LINC00158 (11744669_a_at) / RFU DUSP10 (11751237_a_at) / Fold change /veh DUSP10 (11751237_a_at) / RFU ID3 (11757404_x_at) / Fold change /veh ID3 (11757404_x_at) / RFU PLEKHG5 (11737974_s_at) / Fold change /veh PLEKHG5 (11737974_s_at) / RFU LRRC4B (11730491_at) / Fold change /veh LRRC4B (11730491_at) / RFU GIMAP4 (11747438_a_at) / Fold change /veh GIMAP4 (11747438_a_at) / RFU KRT8 (11758183_x_at) / Fold change /veh KRT8 (11758183_x_at) / RFU CNN1 (11734310_a_at) / Fold change /veh CNN1 (11734310_a_at) / RFU VPS37D (11726825_at) / Fold change /veh VPS37D (11726825_at) / RFU C10orf10 (11716522_x_at) / Fold change /veh C10orf10 (11716522_x_at) / RFU KIR2DL2 /// KIR2DL4 /// KIR2DL5A /// KIR2DL5B /// KIR2DS1 /// KIR2DS2 /// KIR2DS3 /// KIR2DS4 /// KIR3DL3 /// KIR3DL3 /// KIR3DS1 (11738374_at) / Fold change /veh KIR2DL2 /// KIR2DL4 /// KIR2DL5A /// KIR2DL5B /// KIR2DS1 /// KIR2DS2 /// KIR2DS3 /// KIR2DS4 /// KIR3DL3 /// KIR3DL3 /// KIR3DS1 (11738374_at) / RFU C1QL1 (11718748_at) / Fold change /veh C1QL1 (11718748_at) / RFU TMPRSS4 (11747572_a_at) / Fold change /veh TMPRSS4 (11747572_a_at) / RFU HAMP (11756126_x_at) / Fold change /veh HAMP (11756126_x_at) / RFU RNFT2 (11725882_a_at) / Fold change /veh RNFT2 (11725882_a_at) / RFU NR4A2 (11747474_a_at) / Fold change /veh NR4A2 (11747474_a_at) / RFU ABCC12 (11746883_a_at) / Fold change /veh ABCC12 (11746883_a_at) / RFU TMEM136 (11760407_x_at) / Fold change /veh TMEM136 (11760407_x_at) / RFU CLDN22 /// WWC2 (11732394_at) / Fold change /veh CLDN22 /// WWC2 (11732394_at) / RFU HLA-DPB1 (11760878_x_at) / Fold change /veh HLA-DPB1 (11760878_x_at) / RFU SPINT1 (11716480_a_at) / Fold change /veh SPINT1 (11716480_a_at) / RFU GAP43 (11754022_s_at) / Fold change /veh GAP43 (11754022_s_at) / RFU A4GNT (11735810_at) / Fold change /veh A4GNT (11735810_at) / RFU PRB3 (11715151_x_at) / Fold change /veh PRB3 (11715151_x_at) / RFU TUBB4B (11761932_at) / Fold change /veh TUBB4B (11761932_at) / RFU CAPN14 (11732068_a_at) / Fold change /veh CAPN14 (11732068_a_at) / RFU TMCC2 (11721928_a_at) / Fold change /veh TMCC2 (11721928_a_at) / RFU IRGQ (11745062_a_at) / Fold change /veh IRGQ (11745062_a_at) / RFU FAM174B (11720279_a_at) / Fold change /veh FAM174B (11720279_a_at) / RFU TMPRSS4 (11748680_a_at) / Fold change /veh TMPRSS4 (11748680_a_at) / RFU FAM212B (11763350_a_at) / Fold change /veh FAM212B (11763350_a_at) / RFU PLEKHG5 (11743358_a_at) / Fold change /veh PLEKHG5 (11743358_a_at) / RFU ZSCAN30 (11745921_a_at) / Fold change /veh ZSCAN30 (11745921_a_at) / RFU CMKLR1 (11741424_a_at) / Fold change /veh CMKLR1 (11741424_a_at) / RFU LOC101060620 /// MAPK8IP1 (11723275_at) / Fold change /veh LOC101060620 /// MAPK8IP1 (11723275_at) / RFU SPTSSB (11747773_x_at) / Fold change /veh SPTSSB (11747773_x_at) / RFU PRSS12 (11739890_at) / Fold change /veh PRSS12 (11739890_at) / RFU BIN1 (11741810_x_at) / Fold change /veh BIN1 (11741810_x_at) / RFU WNT11 (11732464_a_at) / Fold change /veh WNT11 (11732464_a_at) / RFU C10orf10 (11716521_a_at) / Fold change /veh C10orf10 (11716521_a_at) / RFU C5orf56 (11738089_at) / Fold change /veh C5orf56 (11738089_at) / RFU CYB561 (11721691_x_at) / Fold change /veh CYB561 (11721691_x_at) / RFU ANKRD19P (11752326_a_at) / Fold change /veh ANKRD19P (11752326_a_at) / RFU OR2T12 /// OR2T33 /// OR2T8 (11738714_s_at) / Fold change /veh OR2T12 /// OR2T33 /// OR2T8 (11738714_s_at) / RFU VCAN (11748164_a_at) / Fold change /veh VCAN (11748164_a_at) / RFU JSRP1 (11732532_at) / Fold change /veh JSRP1 (11732532_at) / RFU KRTAP10-11 (11738290_x_at) / Fold change /veh KRTAP10-11 (11738290_x_at) / RFU MYO3A (11730013_a_at) / Fold change /veh MYO3A (11730013_a_at) / RFU EBF3 (11725865_a_at) / Fold change /veh EBF3 (11725865_a_at) / RFU CAMK2N1 (11719241_x_at) / Fold change /veh CAMK2N1 (11719241_x_at) / RFU C5orf56 (11738088_a_at) / Fold change /veh C5orf56 (11738088_a_at) / RFU OLFML3 (11715873_a_at) / Fold change /veh OLFML3 (11715873_a_at) / RFU LOC100653217 /// NTM (11731650_a_at) / Fold change /veh LOC100653217 /// NTM (11731650_a_at) / RFU MAPK11 (11762145_a_at) / Fold change /veh MAPK11 (11762145_a_at) / RFU FIZ1 (11724087_x_at) / Fold change /veh FIZ1 (11724087_x_at) / RFU OASL (11726364_x_at) / Fold change /veh OASL (11726364_x_at) / RFU SOX15 (11748057_x_at) / Fold change /veh SOX15 (11748057_x_at) / RFU CD79A (11719716_a_at) / Fold change /veh CD79A (11719716_a_at) / RFU HIST1H1D (11736915_at) / Fold change /veh HIST1H1D (11736915_at) / RFU CASKIN2 (11723855_a_at) / Fold change /veh CASKIN2 (11723855_a_at) / RFU LOC730098 (11760151_x_at) / Fold change /veh LOC730098 (11760151_x_at) / RFU OR4N2 (11742367_at) / Fold change /veh OR4N2 (11742367_at) / RFU PRRT2 (11749266_a_at) / Fold change /veh PRRT2 (11749266_a_at) / RFU SNX32 (11753110_a_at) / Fold change /veh SNX32 (11753110_a_at) / RFU CDHR5 (11726645_a_at) / Fold change /veh CDHR5 (11726645_a_at) / RFU RCAN1 (11760418_a_at) / Fold change /veh RCAN1 (11760418_a_at) / RFU FAM167A (11723789_a_at) / Fold change /veh FAM167A (11723789_a_at) / RFU FAM26E (11764081_at) / Fold change /veh FAM26E (11764081_at) / RFU ISYNA1 (11749810_s_at) / Fold change /veh ISYNA1 (11749810_s_at) / RFU ACY1 (11761880_at) / Fold change /veh ACY1 (11761880_at) / RFU 11764098_at / Fold change /veh 11764098_at / RFU SAMD14 (11745864_x_at) / Fold change /veh SAMD14 (11745864_x_at) / RFU NPB (11741838_a_at) / Fold change /veh NPB (11741838_a_at) / RFU TMPRSS6 (11731388_a_at) / Fold change /veh TMPRSS6 (11731388_a_at) / RFU KRTAP10-2 (11738614_at) / Fold change /veh KRTAP10-2 (11738614_at) / RFU ARHGAP8 /// PRR5-ARHGAP8 (11727945_x_at) / Fold change /veh ARHGAP8 /// PRR5-ARHGAP8 (11727945_x_at) / RFU KRTAP5-7 /// NADSYN1 (11734609_at) / Fold change /veh KRTAP5-7 /// NADSYN1 (11734609_at) / RFU RASL12 (11751679_a_at) / Fold change /veh RASL12 (11751679_a_at) / RFU CDKN2B (11736163_a_at) / Fold change /veh CDKN2B (11736163_a_at) / RFU PRF1 (11729649_at) / Fold change /veh PRF1 (11729649_at) / RFU, ZNF638 /// ZNF638-IT1 / Fold change vs veh, ZNF638 /// ZNF638-IT1 / RFU, PANK3 / Fold change vs veh, PANK3 / RFU, SH3YL1 / Fold change vs veh, SH3YL1 / RFU, ZEB2 / Fold change vs veh, ZEB2 / RFU, NRIP1 / Fold change vs veh, NRIP1 / RFU, PTTG1IP / Fold change vs veh, PTTG1IP / RFU, CAPN2 / Fold change vs veh, CAPN2 / RFU, MED14 / Fold change vs veh, MED14 / RFU, SNORA58 / Fold change vs veh, SNORA58 / RFU, C1orf63 / Fold change vs veh, C1orf63 / RFU, LRRFIP1 / Fold change vs veh, LRRFIP1 / RFU, NDUFAF7 / Fold change vs veh, NDUFAF7 / RFU, SLC12A2 / Fold change vs veh, SLC12A2 / RFU, IBTK / Fold change vs veh, IBTK / RFU, ESF1 / Fold change vs veh, ESF1 / Fold change vs veh, TMEM50B / RFU, TAOK1 / Fold change vs veh, TAOK1 / RFU, ACBD3 / Fold change vs veh, ACBD3 / RFU, TMA16 / Fold change vs veh, TMA16 / RFU, RWDD3 / Fold change vs veh, RWDD3 / RFU, BCAT1 / Fold change vs veh, BCAT1 / RFU, EDEM3 / Fold change vs veh, EDEM3 / RFU, TMEM33 / Fold change vs veh, TMEM33 / RFU, WDR75 / Fold change vs veh, WDR75 / RFU, AHCTF1 / Fold change vs veh, AHCTF1 / RFU, TFRC / Fold change vs veh, TFRC / RFU, ZDHHC17 / Fold change vs veh, ZDHHC17 / RFU, NOM1 / Fold change vs veh, NOM1 / RFU, ARL8B / Fold change vs veh, ARL8B / RFU, ZBTB11 / Fold change vs veh, ZBTB11 / RFU, TAMM41 / Fold change vs veh, TAMM41 / RFU, KIAA1704 /// LOC100996395 / Fold change vs veh, KIAA1704 /// LOC100996395 / RFU, ING1 / Fold change vs veh, ING1 / RFU, TRMT61B / Fold change vs veh, TRMT61B / RFU, FUBP3 / Fold change vs veh, FUBP3 / RFU, TP53 / Fold change vs veh, TP53 / RFU, TNKS2 / Fold change vs veh, TNKS2 / RFU, ZFP14 / Fold change vs veh, ZFP14 / RFU, ACTR2 / Fold change vs veh, ACTR2 / RFU, PPP3R1 / Fold change vs veh, PPP3R1 / RFU, PIK3R1 / Fold change vs veh, PIK3R1 / RFU, HNRNPA1 / Fold change vs veh, HNRNPA1 / RFU, RNF170 / Fold change vs veh, RNF170 / RFU, ZNF28 / Fold change vs veh, ZNF28 / RFU, RNGTT / Fold change vs veh, RNGTT / RFU, OGT / Fold change vs veh, OGT / RFU, BRD1 / Fold change vs veh, BRD1 / RFU, MARS / Fold change vs veh, MARS / RFU, ZNF655 / Fold change vs veh, ZNF655 / RFU, FAHD1 / Fold change vs veh, FAHD1 / RFU, BDP1 / Fold change vs veh, BDP1 / RFU, LRRCC1 / Fold change vs veh, LRRCC1 / RFU, ARID1A / Fold change vs veh, ARID1A / RFU, ZNF146 / Fold change vs veh, ZNF146 / RFU, ZNF330 / Fold change vs veh, ZNF330 / RFU, GPN3 / Fold change vs veh, GPN3 / RFU, C9orf123 / Fold change vs veh, C9orf123 / RFU, N4BP2L2 / Fold change vs veh, N4BP2L2 / RFU, ARFIP1 / Fold change vs veh, ARFIP1 / RFU, FAM179B / Fold change vs veh, FAM179B / RFU, BCL10 / Fold change vs veh, BCL10 / RFU, UHRF1BP1L / Fold change vs veh, UHRF1BP1L / RFU, BET1 / Fold change vs veh, BET1 / RFU, CNOT2 / Fold change vs veh, CNOT2 / RFU, ZNF268 / Fold change vs veh, ZNF268 / Fold change vs veh, ZNF507 / RFU, DGCR2 / Fold change vs veh, DGCR2 / RFU, WDSUB1 / Fold change vs veh, WDSUB1 / Fold change vs veh, HSP90B1 /// MIR3652 / RFU, ADSS / Fold change vs veh, ADSS / RFU, GK / Fold change vs veh, GK / RFU, ZNF148 / Fold change vs veh, ZNF148 / RFU, TAF9 / Fold change vs veh, TAF9 / RFU, SLC1A5 / Fold change vs veh, SLC1A5 / RFU, SLMO2 / Fold change vs veh, SLMO2 / RFU, ABCC4 / Fold change vs veh, ABCC4 / RFU, LOC101060439 /// RAP1B / Fold change vs veh, LOC101060439 /// RAP1B / RFU, RFX7 / Fold change vs veh, RFX7 / RFU, GTPBP10 / Fold change vs veh, GTPBP10 / RFU, CNEP1R1 / Fold change vs veh, CNEP1R1 / RFU, BIVM-ERCC5 /// ERCC5 / Fold change vs veh, BIVM-ERCC5 /// ERCC5 / RFU, ILF3 / Fold change vs veh, ILF3 / RFU 11762660_at / Fold change /veh 11762660_at / RFU VCAN (11757783_s_at) / Fold change /veh VCAN (11757783_s_at) / RFU DDX43 (11728927_at) / Fold change /veh DDX43 (11728927_at) / RFU KRT8 (11758188_x_at) / Fold change /veh KRT8 (11758188_x_at) / RFU NKD1 (11759106_at) / Fold change /veh NKD1 (11759106_at) / RFU SRD5A1 (11742802_a_at) / Fold change /veh SRD5A1 (11742802_a_at) / RFU TPSAB1 /// TPSB2 (11721975_s_at) / Fold change /veh TPSAB1 /// TPSB2 (11721975_s_at) / RFU GSTM3 (11746129_a_at) / Fold change /veh GSTM3 (11746129_a_at) / RFU IL23R (11737362_x_at) / Fold change /veh IL23R (11737362_x_at) / RFU TMEM51 (11727254_a_at) / Fold change /veh TMEM51 (11727254_a_at) / RFU PIWIL2 (11732686_x_at) / Fold change /veh PIWIL2 (11732686_x_at) / RFU ORM1 (11744905_x_at) / Fold change /veh ORM1 (11744905_x_at) / RFU CCDC152 (11743942_at) / Fold change /veh CCDC152 (11743942_at) / RFU ECM1 (11717891_a_at) / Fold change /veh ECM1 (11717891_a_at) / RFU IL23R (11748794_a_at) / Fold change /veh IL23R (11748794_a_at) / RFU TNFAIP8L3 (11732012_x_at) / Fold change /veh TNFAIP8L3 (11732012_x_at) / RFU MBOAT4 (11741988_at) / Fold change /veh MBOAT4 (11741988_at) / RFU 11764193_at / Fold change /veh 11764193_at / RFU TMEM53 (11763286_at) / Fold change /veh TMEM53 (11763286_at) / RFU MAGEB2 (11727129_at) / Fold change /veh MAGEB2 (11727129_at) / RFU TMEM200A (11744735_a_at) / Fold change /veh TMEM200A (11744735_a_at) / RFU CCDC152 (11751479_a_at) / Fold change /veh CCDC152 (11751479_a_at) / RFU FAM211A (11726209_a_at) / Fold change /veh FAM211A (11726209_a_at) / RFU RGS16 (11746705_a_at) / Fold change /veh RGS16 (11746705_a_at) / RFU VCAN (11755009_s_at) / Fold change /veh VCAN (11755009_s_at) / RFU RHOB (11743442_s_at) / Fold change /veh RHOB (11743442_s_at) / RFU RGS16 (11720943_a_at) / Fold change /veh RGS16 (11720943_a_at) / RFU RGS16 (11720944_at) / Fold change /veh RGS16 (11720944_at) / RFU, VPS4B / Fold change vs veh, VPS4B / RFU, CREB1 / Fold change vs veh, CREB1 / RFU, DNAJC13 / Fold change vs veh, DNAJC13 / RFU, GNAQ / Fold change vs veh, GNAQ / RFU, CDK5R1 / Fold change vs veh, CDK5R1 / RFU, ZRANB3 / Fold change vs veh, ZRANB3 / RFU, CUL4A / Fold change vs veh, CUL4A / RFU, CCNY / Fold change vs veh, CCNY / RFU, UFL1 / Fold change vs veh, UFL1 / RFU, COG3 / Fold change vs veh, COG3 / RFU, DIAPH2 / Fold change vs veh, DIAPH2 / RFU, SKA2 / Fold change vs veh, SKA2 / RFU, AFF3 / Fold change vs veh, AFF3 / RFU, LMF1 / Fold change vs veh, LMF1 / RFU, IPO11 / Fold change vs veh, IPO11 / RFU, DFFB / Fold change vs veh, DFFB / RFU, FOXP1 / Fold change vs veh, FOXP1 / RFU, CARD8 / Fold change vs veh, CARD8 / RFU, STRN3 / Fold change vs veh, STRN3 / RFU, ADK / Fold change vs veh, ADK / RFU, RASSF2 / Fold change vs veh, RASSF2 / RFU, WIPF1 / Fold change vs veh, WIPF1 / RFU, LARP1B / Fold change vs veh, LARP1B / RFU, RASA1 / Fold change vs veh, RASA1 / RFU, RB1 / Fold change vs veh, RB1 / RFU, PPFIA1 / Fold change vs veh, PPFIA1 / RFU, MAT2A / Fold change vs veh, MAT2A / RFU, CCT5 / Fold change vs veh, CCT5 / RFU, WDR92 / Fold change vs veh, WDR92 / RFU, CUX1 / Fold change vs veh, CUX1 / RFU, TTC7A / Fold change vs veh, TTC7A / RFU, TMEM135 / Fold change vs veh, TMEM135 / RFU, DEPTOR / Fold change vs veh, DEPTOR / RFU, CPM / Fold change vs veh, CPM / RFU, DNAJB6 / Fold change vs veh, DNAJB6 / RFU, CACNA2D3 / Fold change vs veh, CACNA2D3 / RFU, DTX4 / Fold change vs veh, DTX4 / RFU, TFCP2 / Fold change vs veh, TFCP2 / RFU, GMCL1 /// GMCL1P1 / Fold change vs veh, GMCL1 /// GMCL1P1 / RFU, AEBP2 / Fold change vs veh, AEBP2 / RFU, SNHG1 /// SNORD22 /// SNORD25 /// SNORD26 /// SNORD27 /// SNORD28 /// SNORD29 /// SNORD31 / Fold change vs veh, SNHG1 /// SNORD22 /// SNORD25 /// SNORD26 /// SNORD27 /// SNORD28 /// SNORD29 /// SNORD31 / Fold change (Aza/veh), C12orf56 (ProbeSet 11735607_a_at) / Fold change (ACY-1035/veh), C12orf56 (ProbeSet 11735607_a_at) / Fold change (Aza/veh), FGFR1OP (ProbeSet 11751329_s_at) / Fold change (ACY-1035/veh), FGFR1OP (ProbeSet 11751329_s_at) / Fold change (Aza/veh), VPS36 (ProbeSet 11739960_a_at) / Fold change (ACY-1035/veh), VPS36 (ProbeSet 11739960_a_at) / RFU SYPL1 (11715823_x_at) / Fold change /veh SYPL1 (11715823_x_at) / RFU IGFBP7 (11715501_s_at) / Fold change /veh IGFBP7 (11715501_s_at) / RFU REEP3 (11722064_at) / Fold change /veh REEP3 (11722064_at) / RFU IGLL1 (11728026_x_at) / Fold change /veh IGLL1 (11728026_x_at): dose or concentration left out as unconfirmed
Conditions: MV-4-11 cells, 48 hours

SMILES: Nc1ncn([C@@H]2O[C@H](CO)[C@@H](O)[C@H]2O)c(=O)n1 [azacitidine]
- Fold change /veh ECM1 (11717891_a_at): 1.26

From publication PMC5218480 (PLoS ONE, 2017)
